# Data: patent US20060025419A1, “Imidazoquinoxaline compound for the treatment of melanoma” (priority 2004, published 2006)
# Peptide text beside a SMILES is read from it. * marks the point of attachment. Cbz = O=C(OCc1ccccc1)*; CH2F = FC*
# Key:
# SK-Mel-5 cells [1] = assay: Nuclear apoptosis (DNA fragmentation) by flow cytometry; type: cell-based, human; details: 50 μM, 48 h, p<0.05
# Protocol: FIGS. 4A-4H. […] Paraffin-embedded tumor tissues were subjected to H&E staining (FIGS. 4C & D) and DeadEnd Fluorometric TUNEL-assay for detection of apoptosis (FIGS. 4E & F). The TUNEL-positive cells are visualized in green fluorescence in a red (Propidium Iodide) background by fluorescence microscopy. […] After 36 h incubation, cells were collected and fixed with 1% formaldehyde and 70% ice-cold ethanol. The apoptotic cells were examined using TUNEL-assay and analyzed by flow cytometry through measuring fluorescein-12-dUTP at 520 nm. The apoptotic rate is indicated in each box. Data shown are represented one of three independent experiments. […] Cells were fixed and stained with Propidium iodide. Cell fluorescence was measured by flow cytometry and the data were analyzed using DNA content histogram deconvolution software (Multicycle from Phoenix Flow Systems). The percentage of apoptotic cells with fragmented DNA (PI intensity sub-G0/G1) is indicated at each time point. The experiments were repeated twice, in duplicates for each point (total n=4).
# caspase-3 = assay: Caspase-3 activity assay (Ac-DEVD-pNA) in cytosol extracts; type: cell-based, human; details: 50 μM pan-caspase inhibitor, 10 μM BMS-345541
# SK-Mel-5 cells [2] = assay: Western blot / confocal analysis of apoptotic proteins in subcellular fractions; type: cell-based, human; details: 50 μM with 10 μM BMS-345541, Western blot and confocal microscopy
# Protocol: Subcellular mitochondria and cytoplasm were prepared and subjected to Western blot analysis for Bcl-2 and Bax. […] After exposure, mitochondria were isolated and incubated with 80 μM 3,3′dihexyloxacarbocyanine iodide (DiOC6) at 37° C. for 15 min. Δψm was determined by FACS analysis using 484/530 nm filters within 10 min while gating the forward and sideward scatters on intact mitochondria (FIG. 5C). […] Subcellular extracts were prepared and subjected to Western blot analysis for cytochrome-C and AIF. […] The supernatant was assessed for cytochrome-c release. 200 μM Ca^2+ was used as a positive control.
# The cellular caspase-3 activity in samples was detected as described in Materials and Methods. […] Cells were fixed and stained with propidium iodide staining as described in FIG. 4H. The percentage of cell death was measured with flow cytometry. […] Cytosol was extracted and subjected to Western blot analysis for AIF, cytochrome-c (cyto-C) and actin. Actin was used as a loading control protein. […] Ref-1 was used as a nuclear marker protein. All data shown here were from three independent experiments. […] SK-Mel-5 cells were exposed to 10 μM BMS and/or pan-caspase inhibitor (Z-VAD-fmk, 50 μM).
# Proteins from cell extracts were separated by 12% SDS-PAGE and electrophoretically transferred to nitrocellulose membranes. Nonspecific binding was blocked with 5% milk in TBST buffer (4 mM Tris base, 100 mM NaCl, pH 7.5, 0.05% Tween), incubated with the indicated primary antibodies with a dilution of 1:1000 at room temperature for 2 h or 4° C. for overnight and then with horseradish peroxidase-conjugated secondary antibody for 1 h. Blots were visualized by enhanced chemiluminescence assay.
# The Mitochondria Isolation Kit (Pierce, Rockford, Ill.) was used for isolation of mitochondria from cultured melanoma cells according to the manufacture's instruction for the Reagent-based method. Briefly, cells (2×10^7) were collected, washed with PBS buffer and resuspended in 0.8 ml of Reagent A on ice for 2 min. 10 μl of Reagent B was added and samples were kept on ice, with vortexing very minute for 5 min. After addition of 0.8 ml of Reagent C, the mixture was centrifuged at 700×g for 10 min to remove the cell debris and nuclei. The supernatant was then centrifuged at 3,000×g for 15 min. The pellet (mitochondria) was washed with Reagent C. The purity of mitochondria was determined by Western blotting with β-actin, where β-actin negative preparation were fully to be pure. The supernatant (cytosolic fraction) was further cleared by centrifugation at 12,000×g for 15 min.
# Cells were incubated with the anti-AIF polyclonal antibody for 2 h. Cells were washed twice and incubated with the secondary antibody conjugated with FITC for 1 h.
# human melanoma grafts = assay: Tumor growth in tumor-bearing mice treated with temozolomide; type: in vivo; details: daily 60 mg/kg orally
Structure (SMILES),cells protected from nuclear apoptosis induced by 10 μM BMS-345541 (SK-Mel-5 cells [1]),block of BMS-345541 induction of caspase-3 activity (caspase-3),influence on AIF translocation to nucleus and nuclear condensation (SK-Mel-5 cells [2]),tumor growth inhibition (human melanoma grafts)
"COC(=O)C[C@H](NC(=O)[C@H](C)NC(=O)[C@@H](NC(=O)OCc1ccccc1)C(C)C)C(=O)CF [Z-VAD-fmk, reference compound] (Cbz-Val-Ala-Asp(OMe)-CH2F)",11%,87.2%,failed to influence,–
Cn1nnc2c(C(N)=O)ncn2c1=O [temozolomide],–,–,–,81%
